From EP4692114A1, “CALCITONIN ANALOGUE, AND DERIVATIVE THEREOF AND USE THEREOF” (Hangzhou Sciwind Biosciences Co., Ltd., priority 2023, dated 2024)
*1 amine or outer side, *2 acyl side, *3 side chain or, on linkers, in order; H or OH if unused. Where a SMILES comes first, the peptide text is derived from it. The star is where a group is joined. C20 diacid = O=C(O)CCCCCCCCCCCCCCCCCCC(=O)*; γGlu = O=C(O)[C@H](CCC(=O)[*:2])N[*:1]

Key:
[1] = background statement; cited from earlier work
human amylin receptors = target: T1, human amylin receptors (Homo sapiens, UniProt O60896+P30988); test: Luciferase assay of amylin (amylin receptor/CRE-luc cell line); assay type: cell-based; details: stably transfected amylin receptor/CRE-luc CHO cells (CHO-K1/Gal5/AMY3), 24 hours incubation, luciferase readout;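 also: agonist potency from luminescence of cAMP response element-driven luciferase, EC50 derived from a standard curve of signal versus compound concentration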
T1 sequence (P30988 25-474): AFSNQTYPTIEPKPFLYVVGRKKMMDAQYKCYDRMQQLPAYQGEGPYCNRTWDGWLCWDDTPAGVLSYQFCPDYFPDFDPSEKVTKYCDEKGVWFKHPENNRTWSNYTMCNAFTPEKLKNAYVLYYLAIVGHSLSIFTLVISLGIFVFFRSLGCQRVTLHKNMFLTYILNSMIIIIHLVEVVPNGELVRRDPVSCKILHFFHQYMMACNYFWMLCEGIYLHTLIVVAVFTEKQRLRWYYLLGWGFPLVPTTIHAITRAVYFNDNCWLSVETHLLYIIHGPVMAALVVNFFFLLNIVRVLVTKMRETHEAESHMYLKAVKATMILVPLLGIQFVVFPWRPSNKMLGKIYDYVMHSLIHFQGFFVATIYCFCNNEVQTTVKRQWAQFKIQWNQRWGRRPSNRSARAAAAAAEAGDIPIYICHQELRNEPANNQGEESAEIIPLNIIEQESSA
T1 sequence (O60896 24-148 partner): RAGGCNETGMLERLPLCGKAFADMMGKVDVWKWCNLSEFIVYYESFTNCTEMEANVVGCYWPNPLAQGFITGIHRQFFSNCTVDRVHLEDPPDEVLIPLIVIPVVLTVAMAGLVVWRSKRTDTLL

[2] = Heat accelerated stability assay under a neutral condition; assay type: physicochemical; details: pH about 7.4, 40°C; for Changes in characteristics or properties, 0d / Changes in characteristics or properties, 7d / Characteristics or properties on Day 26: 1 mg/mL, phosphate; for Concentration change on Day 26 as compared to Day 0: Day 26 vs Day 0; for Purity Change% (7d-0d): purity from reversed phase chromatography-214 nm, Day 7 vs Day 0
Method in brief: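 Peptide (1 mg/mL) with sodium dihydrogen phosphate (1.42 mg/mL) in water, pH ~7.4, was sterile-filtered and stored at 40 °C, sampled on days 7 and 26. After centrifugation, concentration and purity (target/total peak area) were measured by reversed-phase HPLC at 214 and 280 nm, water/0.05% TFA to acetonitrile gradient, 25 °C column.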

[3] = Heat accelerated stability assay for compatibility testing (M8 with M51); assay type: physicochemical; details: M8 1 mg/ml with M51 1 mg/ml, pH about 7.4, one-month heat accelerated assay, without and with excipients (phenol, 1,2-dihydroxypropane)
Protocol: The calcitonin analogue M8 (1 mg/ml), the GLP-1 receptor agonist M51 (1 mg/ml), and sodium dihydrogen phosphate (1.42 mg/ml) were mixed and dissolved in ultrapure water, and 5.5 mg/ml phenol and 14 mg/ml 1,2-dihydroxypropane were further added for the testing group with excipients. After pH was adjusted to about 7.4 with hydrochloric acid/sodium hydroxide, accelerated stability assays were performed according to the method of Example 3. […] Thus, they had the potential to be developed as a co-formulation.

[4] = Study of weight change and food consumption in rats; assay type: in vivo, SD (Sprague Dawley) rats; details: SD rats, subcutaneous, 10 nmol/kg; for Effect on reducing food intake: accumulated food intake recorded every 24 hours (FIGs. 7 and 9); for Effect on reducing body weight: recorded every 24 hours (FIGs. 6 and 8)
From the text: SD (Sprague Dawley) rats weighing 200-250 g were used for this study. The rats were received at least 10-14 days before the study began such that they could accommodate to the experimental environment. After arrival, they were exposed to a reversed light/dark cycle (i.e., lights switched off in daytime and on in nighttime) for two weeks and were individually housed for the first week so as to ensure high data accuracy and test sensitivity. Throughout the acclimation and experiment period, the rats had free access to food and water. 5-8 rats were assigned to each testing group for the derivatives and were subcutaneously administered the derivatives at a dose of 10 nmol/kg or a vehicle, and the dosing timepoint was recorded for each group. After dosing, the rats were put back into cages where they were housed and could have access to food and water. Food consumption and weight change of the rats were recorded online or manually every 24 hours.

SMILES: CC(C)C[C@H](NC(=O)[C@H](CCCCN)NC(=O)CNC(=O)[C@H](CC(C)C)NC(=O)[C@@H](NC(=O)[C@@H]1CSSC[C@H](N)C(=O)N[C@@H](CO)C(=O)N[C@@H](CC(N)=O)C(=O)N[C@@H](CC(C)C)C(=O)N[C@@H](CO)C(=O)N[C@@H]([C@@H](C)O)C(=O)N1)C(C)C)C(=O)N[C@@H](CO)C(=O)N[C@@H](CCC(N)=O)C(=O)N[C@@H](CCC(=O)O)C(=O)N[C@@H](CC(C)C)C(=O)N[C@@H](Cc1c[nH]cn1)C(=O)N[C@@H](CCCCN)C(=O)N[C@@H](CC(C)C)C(=O)N[C@@H](CCC(N)=O)C(=O)N[C@H](C(=O)N[C@@H](Cc1ccc(O)cc1)C(=O)N1CCC[C@H]1C(=O)N[C@@H](CCCNC(=N)N)C(=O)N[C@H](C(=O)N[C@@H](CC(N)=O)C(=O)N[C@H](C(=O)NCC(=O)N[C@@H](CO)C(=O)NCC(=O)N[C@H](C(=O)N1CCC[C@H]1C(N)=O)[C@@H](C)O)[C@@H](C)O)[C@@H](C)O)[C@@H](C)O [D2, salmon calcitonin]
- half-life [1]: less than two hours

SMILES: CC(C)C[C@H](NC(=O)[C@H](CCCNC(=N)N)NC(=O)CNC(=O)[C@H](CC(C)C)NC(=O)[C@@H](NC(=O)[C@H](C)NC(=O)[C@@H](NC(=O)[C@H](CO)NC(=O)[C@H](CC(C)C)NC(=O)[C@H](CCC(N)=O)NC(=O)[C@H](CO)NC(=O)[C@H](C)NC(=O)CC[C@H](NC(=O)CCCCCCCCCCCCCCCCCCC(=O)O)C(=O)O)[C@@H](C)O)C(C)C)C(=O)N[C@@H](CO)C(=O)N[C@@H](CC(=O)O)C(=O)N[C@@H](CCC(=O)O)C(=O)N[C@@H](CC(C)C)C(=O)N[C@@H](Cc1c[nH]cn1)C(=O)N[C@@H](CCCNC(=N)N)C(=O)N[C@@H](CC(C)C)C(=O)N[C@@H](CCC(N)=O)C(=O)N[C@@H](CC(=O)O)C(=O)N[C@@H](Cc1ccc(O)cc1)C(=O)N1CCC[C@H]1C(=O)N[C@@H](CCCNC(=N)N)C(=O)N[C@H](C(=O)N[C@@H](CC(=O)O)C(=O)N[C@H](C(=O)NCC(=O)N[C@@H](CO)C(=O)NCC(=O)N[C@@H](CO)C(=O)N1CCC[C@H]1C(N)=O)C(C)C)[C@@H](C)O [M8] ({C20 diacid-γGlu}-ASQLSTAVLGRLSDELHRLQDYPRTDVGSGSP-NH2)
- EC50 (human amylin receptors): 0.017 nM
- Changes in characteristics or properties, 0d [2]: Clear
- Changes in characteristics or properties, 7d ([2]; 7d): Clear
- Characteristics or properties on Day 26 [2]: clear solution
- Reversed phase chromatography 7d change ([2]; Table 8, purity change, 7d): No change (a decrease of less than 1% from the initial value to the detected content is denoted as "no change")
- Reversed phase chromatography 26d change ([2]; Table 8, purity change, 26d): -0.12%
- Concentration change on Day 26 as compared to Day 0 [2]: less than 2%
- Purity Change% (7d-0d) [2]: No change (a decrease of less than 1% from the initial value to the detected content is denoted as "no change")
- Change in the spectra of reversed phase chromatography (compatibility) [3]: only a little change
- Effect on reducing food intake [4]: prominent effect
- Effect on reducing body weight [4]: prominent effect

SMILES: CC(C)C[C@H](NC(=O)[C@H](CCCNC(=N)N)NC(=O)CNC(=O)[C@H](CC(C)C)NC(=O)[C@@H](NC(=O)[C@H](C)NC(=O)[C@@H](NC(=O)[C@H](CO)NC(=O)[C@H](CC(C)C)NC(=O)[C@H](CCC(N)=O)NC(=O)[C@H](CO)NC(=O)[C@H](C)NC(=O)CC[C@H](NC(=O)CCCCCCCCCCCCCCCCCCC(=O)O)C(=O)O)[C@@H](C)O)C(C)C)C(=O)N[C@@H](CO)C(=O)N[C@@H](CCC(N)=O)C(=O)N[C@@H](CCC(=O)O)C(=O)N[C@@H](CC(C)C)C(=O)N[C@@H](Cc1c[nH]cn1)C(=O)N[C@@H](CCCNC(=N)N)C(=O)N[C@@H](CC(C)C)C(=O)N[C@@H](CCC(=O)O)C(=O)N[C@@H](CC(=O)O)C(=O)N[C@@H](Cc1ccc(O)cc1)C(=O)N1CCC[C@H]1C(=O)N[C@@H](CCCNC(=N)N)C(=O)N[C@H](C(=O)N[C@@H](CC(=O)O)C(=O)N[C@H](C(=O)NCC(=O)N[C@@H](CO)C(=O)NCC(=O)N[C@@H](CO)C(=O)N1CCC[C@H]1C(N)=O)C(C)C)[C@@H](C)O [M13] ({C20 diacid-γGlu}-ASQLSTAVLGRLSQELHRLEDYPRTDVGSGSP-NH2)
- EC50 (human amylin receptors): 0.017 nM
- Changes in characteristics or properties, 0d [2]: Clear
- Changes in characteristics or properties, 7d ([2]; 7d): Clear
- Characteristics or properties on Day 26 [2]: clear solution
- Concentration change on Day 26 as compared to Day 0 [2]: less than 2%
- Purity Change% (7d-0d) [2]: No change (a decrease of less than 1% from the initial value to the detected content is denoted as "no change")
- Effect on reducing food intake [4]: particularly effective
- Effect on reducing body weight [4]: particularly effective

SMILES: CC(C)C[C@H](NC(=O)[C@H](CCCNC(=N)N)NC(=O)CNC(=O)[C@H](CC(C)C)NC(=O)[C@@H](NC(=O)[C@H](C)NC(=O)[C@@H](NC(=O)[C@H](CO)NC(=O)[C@H](CC(C)C)NC(=O)[C@H](CCC(N)=O)NC(=O)[C@H](CO)NC(=O)[C@H](C)NC(=O)CC[C@H](NC(=O)CCCCCCCCCCCCCCCCCCC(=O)O)C(=O)O)[C@@H](C)O)C(C)C)C(=O)N[C@@H](CO)C(=O)N[C@@H](CCC(N)=O)C(=O)N[C@@H](CCC(=O)O)C(=O)N[C@@H](CC(C)C)C(=O)N[C@@H](Cc1c[nH]cn1)C(=O)N[C@@H](CCCNC(=N)N)C(=O)N[C@@H](CC(C)C)C(=O)N[C@@H](CCC(N)=O)C(=O)N[C@@H](CC(=O)O)C(=O)N[C@@H](Cc1ccc(O)cc1)C(=O)N1CCC[C@H]1C(=O)N[C@@H](CCCNC(=N)N)C(=O)N[C@H](C(=O)N[C@@H](CC(=O)O)C(=O)N[C@H](C(=O)NCC(=O)N[C@@H](C)C(=O)NCC(=O)N[C@@H](CO)C(=O)N1CCC[C@H]1C(N)=O)C(C)C)[C@@H](C)O [M19] ({C20 diacid-γGlu}-ASQLSTAVLGRLSQELHRLQDYPRTDVGAGSP-NH2)
- EC50 (human amylin receptors): 0.016 nM
- Changes in characteristics or properties, 0d [2]: Clear
- Changes in characteristics or properties, 7d ([2]; 7d): Clear
- Concentration change (7d-0d)/% ([2]; Day 7 vs Day 0, reversed phase chromatography): No change (a decrease of less than 1% from the initial value to the detected content is denoted as "no change")
- Purity Change% (7d-0d) [2]: No change (a decrease of less than 1% from the initial value to the detected content is denoted as "no change")
- Effect on reducing food intake [4]: prominent effect
- Effect on reducing body weight [4]: prominent effect
